From ChEMBL document CHEMBL5052849, “Compositions and methods for measuring and inhibiting calpain-5 activity” (2021)
Non-standard residues stand in square brackets, D forms with d. Residues, ends and D or L forms follow the SMILES beside them. Nle = CCCC[C@H](N)C(=O)O

Key:
Parameters in all cases: species or system Homo sapiens
[1] = Inhibition of CAPN5 G267S mutant (unknown origin) using DABCYL-TPLKSPPPSPR-EDANS as substrate incubated for 30 mins and measured by High-throughput FRET-based assay
[2] = Inhibition of CAPN5 R243L mutant (unknown origin)
[3] = Inhibition of wild-type CAPN5 (unknown origin)

| IC50 [1] [nM] | IC50 ([2]; read-out: IC50) [nM] | IC50 [3] [nM] | IC50 [2] | Compound |
| --- | --- | --- | --- | --- |
| 136 |  |  |  | CCCC[C@@H](C=O)NC(=O)[C@H](CC(C)C)NC(=O)[C@H](CC(C)C)NC(C)=O (Ac-Leu-Leu-[Nle]-aldehyde) |
| 3.6 | 29.5 | 24000 |  | CC[C@H](C)[C@H](NC(=O)[C@H](CCC(=O)O)NC(=O)[C@@H](NC(=O)[C@@H](N)CCCCN)[C@@H](C)CC)C(=O)N[C@H](C(=O)N[C@@H](CCCNC(=N)N)C(=O)N[C@@H](CCCCNC)C(=O)N[C@@H](CCCCN)C(=O)N1CCC[C@H]1C(=O)N[C@H](C(=O)N[C@@H](Cc1ccccc1)C(=O)N[C@@H](CCCCN)C(=O)N[C@@H](CCCCN)C(=O)N[C@@H](C)C(=O)N[C@H](C(=O)N[C@H](C(=O)O)C(C)C)[C@@H](C)O)[C@@H](C)CC)C(C)C (HELM PEPTIDE1{K.I.E.I.V.R.[CNCCCC[C@H](N[*:1])C(=O)[*:2]].K.P.I.F.K.K.A.T.V}$$$$V2.0) |
| 1200 | 126 | 496 |  | CC[C@H](C)[C@H](NC(=O)[C@H](CCC(=O)O)NC(=O)[C@@H](NC(=O)[C@@H](N)CCCCN)[C@@H](C)CC)C(=O)N[C@H](C(=O)N[C@@H](CCCNC(=N)N)C(=O)N[C@@H](CCCCNC)C(=O)N[C@@H](CCCCNC)C(=O)N1CCC[C@H]1C(=O)N[C@H](C(=O)N[C@@H](Cc1ccccc1)C(=O)N[C@@H](CCCCN)C(=O)N[C@@H](CCCCN)C(=O)N[C@@H](C)C(=O)N[C@H](C(=O)N[C@H](C(=O)O)C(C)C)[C@@H](C)O)[C@@H](C)CC)C(C)C (HELM PEPTIDE1{K.I.E.I.V.R.[CNCCCC[C@H](N[*:1])C(=O)[*:2]].[CNCCCC[C@H](N[*:1])C(=O)[*:2]].P.I.F.K.K.A.T.V}$$$$V2.0) |
| 1100 |  | 8.35 | Not Active | CCCC[C@@H](C=O)NC(=O)[C@H](CC(C)C)NC(=O)OCc1ccccc1 [CALPEPTIN] |
|  |  | 165 | Not Active | CC(=O)N[C@@H](CC(C)C)C(=O)N[C@@H](CC(C)C)C(=O)N[C@H](C=O)CCCNC(=N)N [LEUPEPTIN] |
